Experimental data from ChEMBL document CHEMBL5465560, “Selectivity Literature for EUbOPEN Chemogenomic Library” (2024).

What was measured:
SRSF protein kinase 1 = SRSF protein kinase 1 (Homo sapiens, UniProt Q96SB4); assay: Selectivity interaction (KinomeScan (DiscoverX)) EUB0000045b SRPK1
[1] = target: Cyclin-dependent kinase 5 (Homo sapiens, UniProt Q00535); assay: Selectivity interaction (LanthaScreen Eu Kinase Binding Assay) EUB0001632a CDK5; conditions: at 10 µM
[2] = target: MAP kinase-activated protein kinase 2 (Homo sapiens, UniProt P49137); conditions: at 10 µM
[3] = target: Microtubule-associated serine/threonine-protein kinase 1 (Homo sapiens) (UniProt Q9Y2H9); assay: Selectivity interaction (KinomeScan (DiscoverX)) EUB0001049a MAST1; conditions: at 1 µM
[4] = target: Mitogen-activated protein kinase kinase kinase 10 (Homo sapiens) (UniProt Q02779); assay: Selectivity interaction (KinomeScan (DiscoverX)) EUB0001049a MAP3K10; conditions: at 1 µM
[5] = target: T1, Testis-specific serine/threonine-protein kinase 1 (Homo sapiens) (UniProt Q9BXA7); assay: Selectivity interaction (Upstate Kinase Profiler service (Millipore)) EUB0000056c TSSK1A; conditions: at 1 µM
T1 sequence (whole entry): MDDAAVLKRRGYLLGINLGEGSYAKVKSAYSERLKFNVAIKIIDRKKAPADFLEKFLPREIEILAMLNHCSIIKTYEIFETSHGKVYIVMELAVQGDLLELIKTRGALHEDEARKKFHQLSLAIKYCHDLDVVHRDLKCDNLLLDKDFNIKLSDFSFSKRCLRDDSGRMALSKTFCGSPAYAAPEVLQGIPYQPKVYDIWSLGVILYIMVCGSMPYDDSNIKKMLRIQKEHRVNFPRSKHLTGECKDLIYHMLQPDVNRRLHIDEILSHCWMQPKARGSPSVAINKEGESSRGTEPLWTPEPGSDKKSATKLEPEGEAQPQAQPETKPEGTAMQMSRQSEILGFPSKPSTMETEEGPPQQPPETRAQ

[6] = target: Serine/threonine-protein kinase B-raf (Homo sapiens) (UniProt P15056); assay: (§1) Selectivity interaction (KinomeScan (DiscoverX)) EUB0000607a BRAF; conditions: at 10 µM
[7] = test system: Serine/threonine-protein kinase B-raf (Homo sapiens), P15056 [V600E]; assay: as §1; conditions: at 10 µM
[8] = target: Serine/threonine-protein kinase PAK 1 (Homo sapiens) (UniProt Q13153); assay: Selectivity interaction (Kinase panel (DSF assay)) EUB0001558a PAK1
[9] = target: Protein-tyrosine kinase 2-beta (Homo sapiens) (UniProt Q14289); assay: Selectivity interaction (ActivX KiNativ screen (kinase selectivity in THP-1 cell lysates)) EUB0000639a PTK2B; format: subcellular; conditions: lysate, at 0.01 µM
[10] = target: Cyclin-dependent kinase 16 (Homo sapiens) (UniProt Q00536); assay: Selectivity interaction (ActivX KiNativ screen (kinase selectivity in THP-1 cell lysates)) EUB0000639a CDK16; format: subcellular; conditions: lysate, at 5 µM
[11] = target: eIF-2-alpha kinase GCN2 (Homo sapiens) (UniProt Q9P2K8); assay: Selectivity interaction (ActivX KiNativ screen (kinase selectivity in THP-1 cell lysates)) EUB0000639a EIF2AK4; format: subcellular; conditions: lysate
[12] = target: T2, Serine/threonine-protein kinase 36 (Homo sapiens) (UniProt Q9NRP7); assay: Selectivity interaction (KinomeScan (DiscoverX)) EUB0000655a STK36; conditions: at 10 µM
T2 sequence (whole entry): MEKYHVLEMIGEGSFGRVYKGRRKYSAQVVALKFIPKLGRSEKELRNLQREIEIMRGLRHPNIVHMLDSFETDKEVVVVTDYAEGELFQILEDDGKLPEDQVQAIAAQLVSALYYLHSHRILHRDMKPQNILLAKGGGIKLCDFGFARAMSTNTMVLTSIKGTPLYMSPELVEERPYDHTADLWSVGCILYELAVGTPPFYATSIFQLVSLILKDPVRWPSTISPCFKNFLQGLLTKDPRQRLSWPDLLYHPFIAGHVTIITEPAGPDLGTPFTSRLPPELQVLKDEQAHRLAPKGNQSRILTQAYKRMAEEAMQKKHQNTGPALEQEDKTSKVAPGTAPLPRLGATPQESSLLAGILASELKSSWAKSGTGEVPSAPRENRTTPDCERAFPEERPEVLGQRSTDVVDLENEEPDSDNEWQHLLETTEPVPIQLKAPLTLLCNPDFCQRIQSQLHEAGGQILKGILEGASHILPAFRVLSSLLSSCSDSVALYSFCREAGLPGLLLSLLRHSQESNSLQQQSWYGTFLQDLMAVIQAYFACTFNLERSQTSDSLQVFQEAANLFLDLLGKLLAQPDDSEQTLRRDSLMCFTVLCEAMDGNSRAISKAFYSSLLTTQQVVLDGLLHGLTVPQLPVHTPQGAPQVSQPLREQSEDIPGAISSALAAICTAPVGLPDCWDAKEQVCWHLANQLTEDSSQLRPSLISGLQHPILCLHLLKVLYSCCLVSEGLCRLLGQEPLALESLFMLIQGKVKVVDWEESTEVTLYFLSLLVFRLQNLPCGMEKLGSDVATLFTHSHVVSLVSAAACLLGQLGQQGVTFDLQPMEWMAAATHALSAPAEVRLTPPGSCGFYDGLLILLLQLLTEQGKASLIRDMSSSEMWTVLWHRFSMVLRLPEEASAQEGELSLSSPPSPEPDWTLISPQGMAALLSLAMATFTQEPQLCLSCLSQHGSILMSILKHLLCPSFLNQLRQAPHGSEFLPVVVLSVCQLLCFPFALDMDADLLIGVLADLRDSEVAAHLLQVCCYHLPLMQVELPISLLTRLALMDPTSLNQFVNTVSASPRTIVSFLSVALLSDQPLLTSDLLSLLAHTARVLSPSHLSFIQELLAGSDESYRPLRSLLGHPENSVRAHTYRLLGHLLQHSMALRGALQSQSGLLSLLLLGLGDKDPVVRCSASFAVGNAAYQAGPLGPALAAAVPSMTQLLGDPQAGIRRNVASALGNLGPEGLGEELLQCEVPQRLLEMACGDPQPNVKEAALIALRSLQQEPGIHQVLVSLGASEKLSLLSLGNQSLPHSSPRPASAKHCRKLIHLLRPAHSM

[13] = target: Calcium/calmodulin-dependent protein kinase kinase 2 (Homo sapiens) (UniProt Q96RR4); conditions: at 10 µM
[14] = test system: Hepatocyte growth factor receptor (Homo sapiens), P08581 [M1250T]; assay: (§2) Selectivity interaction (KinomeScan (DiscoverX)) EUB0000092b MET; conditions: at 10 µM
[15] = target: Hepatocyte growth factor receptor (Homo sapiens, UniProt P08581); assay: as §2; conditions: at 10 µM
[16] = test system: Hepatocyte growth factor receptor (Homo sapiens), P08581 [Y1235D]; assay: as §2; conditions: at 10 µM
[17] = target: Vascular endothelial growth factor receptor 1 (Homo sapiens) (UniProt P17948); assay: Selectivity interaction (Ambit KINOMEscan and KiNATiv profiling in Jurkat cells) EUB0000090b FLT1; format: cell-based; conditions: at 1 µM
Vascular endothelial growth factor receptor 1 (Homo sapiens), sequence (P17948 whole entry): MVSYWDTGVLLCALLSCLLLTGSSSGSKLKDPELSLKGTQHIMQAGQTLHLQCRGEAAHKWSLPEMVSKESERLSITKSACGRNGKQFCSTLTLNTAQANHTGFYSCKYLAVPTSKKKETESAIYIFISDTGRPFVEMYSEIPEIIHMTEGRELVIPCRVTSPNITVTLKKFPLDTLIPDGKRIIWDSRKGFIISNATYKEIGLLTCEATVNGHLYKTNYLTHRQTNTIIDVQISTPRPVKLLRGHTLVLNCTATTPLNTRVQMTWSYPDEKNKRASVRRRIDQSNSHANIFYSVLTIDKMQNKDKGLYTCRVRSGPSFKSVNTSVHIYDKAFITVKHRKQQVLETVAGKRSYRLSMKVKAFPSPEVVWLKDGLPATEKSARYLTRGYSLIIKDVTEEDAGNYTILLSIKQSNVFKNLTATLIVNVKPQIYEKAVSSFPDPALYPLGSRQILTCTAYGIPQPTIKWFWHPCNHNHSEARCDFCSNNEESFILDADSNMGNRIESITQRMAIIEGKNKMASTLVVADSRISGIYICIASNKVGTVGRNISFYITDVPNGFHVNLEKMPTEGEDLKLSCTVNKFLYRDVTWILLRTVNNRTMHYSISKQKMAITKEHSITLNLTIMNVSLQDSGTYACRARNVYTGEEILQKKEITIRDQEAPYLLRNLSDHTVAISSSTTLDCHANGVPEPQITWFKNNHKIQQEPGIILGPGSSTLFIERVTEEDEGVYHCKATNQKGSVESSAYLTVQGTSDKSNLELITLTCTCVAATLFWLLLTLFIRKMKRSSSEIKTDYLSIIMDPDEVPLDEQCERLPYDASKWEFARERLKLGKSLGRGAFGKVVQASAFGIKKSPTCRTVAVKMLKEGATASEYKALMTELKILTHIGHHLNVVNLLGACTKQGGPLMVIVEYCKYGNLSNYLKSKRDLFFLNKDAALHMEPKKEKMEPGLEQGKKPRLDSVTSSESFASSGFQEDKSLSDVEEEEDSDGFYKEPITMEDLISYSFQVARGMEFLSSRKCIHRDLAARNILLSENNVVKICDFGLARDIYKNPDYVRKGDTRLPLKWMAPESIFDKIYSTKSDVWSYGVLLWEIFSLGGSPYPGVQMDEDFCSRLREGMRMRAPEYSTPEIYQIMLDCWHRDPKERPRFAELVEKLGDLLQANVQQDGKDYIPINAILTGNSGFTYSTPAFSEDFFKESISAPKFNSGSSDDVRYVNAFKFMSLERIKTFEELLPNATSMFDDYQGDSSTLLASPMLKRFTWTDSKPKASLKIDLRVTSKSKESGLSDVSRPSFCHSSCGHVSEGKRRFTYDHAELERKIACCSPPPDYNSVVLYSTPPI

eIF-2-alpha kinase GCN2 (Homo sapiens), sequence (Q9P2K8 whole entry): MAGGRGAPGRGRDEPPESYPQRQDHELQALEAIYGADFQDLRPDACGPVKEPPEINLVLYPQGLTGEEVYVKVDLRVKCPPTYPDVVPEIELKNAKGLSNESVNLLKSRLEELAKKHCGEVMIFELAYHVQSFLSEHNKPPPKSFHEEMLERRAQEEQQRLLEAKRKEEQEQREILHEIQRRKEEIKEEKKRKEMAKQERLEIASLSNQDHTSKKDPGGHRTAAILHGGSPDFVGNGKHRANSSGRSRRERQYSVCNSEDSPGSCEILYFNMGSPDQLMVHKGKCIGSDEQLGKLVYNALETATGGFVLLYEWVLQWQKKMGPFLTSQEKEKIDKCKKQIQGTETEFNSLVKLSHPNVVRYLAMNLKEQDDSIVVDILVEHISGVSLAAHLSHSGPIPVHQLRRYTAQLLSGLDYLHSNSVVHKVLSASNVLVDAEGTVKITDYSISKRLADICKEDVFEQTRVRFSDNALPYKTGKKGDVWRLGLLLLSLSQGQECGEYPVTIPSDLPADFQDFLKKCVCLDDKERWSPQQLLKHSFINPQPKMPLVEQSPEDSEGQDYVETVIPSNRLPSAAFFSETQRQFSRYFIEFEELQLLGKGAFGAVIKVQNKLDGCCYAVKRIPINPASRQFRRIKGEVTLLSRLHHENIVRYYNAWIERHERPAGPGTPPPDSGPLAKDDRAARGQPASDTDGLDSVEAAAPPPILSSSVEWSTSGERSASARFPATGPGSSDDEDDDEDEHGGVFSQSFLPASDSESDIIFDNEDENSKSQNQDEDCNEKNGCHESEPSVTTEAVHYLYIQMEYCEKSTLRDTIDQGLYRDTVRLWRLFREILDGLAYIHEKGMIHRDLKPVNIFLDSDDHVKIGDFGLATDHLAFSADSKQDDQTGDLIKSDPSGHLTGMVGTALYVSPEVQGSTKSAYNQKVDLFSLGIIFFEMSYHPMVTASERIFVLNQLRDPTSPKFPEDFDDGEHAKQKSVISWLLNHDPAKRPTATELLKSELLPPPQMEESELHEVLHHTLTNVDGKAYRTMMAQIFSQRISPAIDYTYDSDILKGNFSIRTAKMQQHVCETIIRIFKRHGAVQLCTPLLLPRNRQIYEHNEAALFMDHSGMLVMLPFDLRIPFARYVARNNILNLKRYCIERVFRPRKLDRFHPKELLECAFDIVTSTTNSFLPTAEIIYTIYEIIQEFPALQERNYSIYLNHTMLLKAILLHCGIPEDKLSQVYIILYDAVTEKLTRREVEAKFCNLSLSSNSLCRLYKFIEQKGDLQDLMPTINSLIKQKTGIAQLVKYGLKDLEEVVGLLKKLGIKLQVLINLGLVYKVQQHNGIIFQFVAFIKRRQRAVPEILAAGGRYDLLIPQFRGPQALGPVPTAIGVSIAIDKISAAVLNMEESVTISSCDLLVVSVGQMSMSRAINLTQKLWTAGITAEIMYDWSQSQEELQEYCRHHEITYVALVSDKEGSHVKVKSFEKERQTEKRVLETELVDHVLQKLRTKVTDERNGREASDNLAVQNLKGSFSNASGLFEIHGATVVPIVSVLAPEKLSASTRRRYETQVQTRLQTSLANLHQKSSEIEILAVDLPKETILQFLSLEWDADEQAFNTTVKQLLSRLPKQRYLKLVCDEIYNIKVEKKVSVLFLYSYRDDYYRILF
SRSF protein kinase 1, sequence (Q96SB4 whole entry): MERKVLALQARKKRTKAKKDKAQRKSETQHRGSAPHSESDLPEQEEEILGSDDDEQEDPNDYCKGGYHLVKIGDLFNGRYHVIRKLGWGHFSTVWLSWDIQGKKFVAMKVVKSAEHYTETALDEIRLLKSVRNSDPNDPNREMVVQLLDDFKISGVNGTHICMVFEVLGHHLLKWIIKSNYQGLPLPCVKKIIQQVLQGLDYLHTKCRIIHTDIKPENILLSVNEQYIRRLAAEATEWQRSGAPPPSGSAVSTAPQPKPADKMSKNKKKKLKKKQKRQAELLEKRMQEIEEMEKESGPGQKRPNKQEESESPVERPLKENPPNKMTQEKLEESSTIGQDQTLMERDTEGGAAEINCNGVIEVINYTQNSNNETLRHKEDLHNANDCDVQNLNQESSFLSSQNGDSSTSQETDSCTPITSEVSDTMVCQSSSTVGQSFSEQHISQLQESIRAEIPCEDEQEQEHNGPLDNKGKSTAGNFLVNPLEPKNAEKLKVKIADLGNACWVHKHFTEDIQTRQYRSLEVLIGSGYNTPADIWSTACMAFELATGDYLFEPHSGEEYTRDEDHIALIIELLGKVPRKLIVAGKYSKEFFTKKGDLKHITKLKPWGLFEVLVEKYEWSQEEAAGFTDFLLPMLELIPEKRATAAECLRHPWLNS
Hepatocyte growth factor receptor (Homo sapiens), P08581 [M1250T], sequence (P08581 whole entry M1250T): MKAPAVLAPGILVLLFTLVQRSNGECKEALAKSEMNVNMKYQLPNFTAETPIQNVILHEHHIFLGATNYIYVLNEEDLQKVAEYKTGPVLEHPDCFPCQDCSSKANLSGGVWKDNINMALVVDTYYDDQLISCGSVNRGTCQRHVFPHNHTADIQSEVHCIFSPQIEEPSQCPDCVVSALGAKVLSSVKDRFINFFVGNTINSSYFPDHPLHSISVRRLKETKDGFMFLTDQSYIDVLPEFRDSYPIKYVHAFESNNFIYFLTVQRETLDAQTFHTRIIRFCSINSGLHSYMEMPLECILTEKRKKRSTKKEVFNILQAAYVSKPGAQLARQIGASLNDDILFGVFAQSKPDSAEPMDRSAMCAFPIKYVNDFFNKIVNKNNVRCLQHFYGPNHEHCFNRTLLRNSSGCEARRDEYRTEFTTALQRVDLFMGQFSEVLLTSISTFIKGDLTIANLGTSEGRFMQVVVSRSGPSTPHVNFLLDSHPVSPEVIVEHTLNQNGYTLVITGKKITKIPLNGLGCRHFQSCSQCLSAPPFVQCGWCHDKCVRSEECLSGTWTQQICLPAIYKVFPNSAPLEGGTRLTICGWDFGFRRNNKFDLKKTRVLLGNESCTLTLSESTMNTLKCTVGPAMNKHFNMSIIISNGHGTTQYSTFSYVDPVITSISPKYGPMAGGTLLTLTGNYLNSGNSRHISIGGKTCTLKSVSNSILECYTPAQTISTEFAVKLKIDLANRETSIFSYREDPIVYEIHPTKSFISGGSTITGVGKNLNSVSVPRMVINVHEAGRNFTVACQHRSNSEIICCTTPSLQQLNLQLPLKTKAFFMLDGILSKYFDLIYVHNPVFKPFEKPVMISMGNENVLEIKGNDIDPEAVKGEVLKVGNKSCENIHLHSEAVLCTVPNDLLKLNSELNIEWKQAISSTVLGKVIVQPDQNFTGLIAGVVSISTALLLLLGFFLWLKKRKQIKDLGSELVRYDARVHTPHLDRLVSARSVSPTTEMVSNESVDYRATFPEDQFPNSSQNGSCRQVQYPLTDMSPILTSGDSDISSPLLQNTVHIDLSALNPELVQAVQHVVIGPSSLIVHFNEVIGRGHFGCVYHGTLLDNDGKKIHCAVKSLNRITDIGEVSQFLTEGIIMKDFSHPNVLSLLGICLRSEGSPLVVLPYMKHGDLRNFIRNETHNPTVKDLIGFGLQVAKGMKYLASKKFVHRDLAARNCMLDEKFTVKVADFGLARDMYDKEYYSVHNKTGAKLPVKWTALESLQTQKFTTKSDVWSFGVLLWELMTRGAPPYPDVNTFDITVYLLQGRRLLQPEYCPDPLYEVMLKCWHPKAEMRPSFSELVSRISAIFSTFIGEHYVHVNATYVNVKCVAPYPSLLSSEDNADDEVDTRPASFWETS

**Q.** Which results are given for `C=CC(=O)Nc1cc(-n2c(=O)ccc3cnc4ccc(-c5ccc(NS(C)(=O)=O)cc5)cc4c32)ccc1C`?
**A.** % of control (SRSF protein kinase 1; at 1 µM): 78%; % of control (SRSF protein kinase 1; at 10 µM): 100%

**Q.** Which % of inhibition [1] does the source give for `Cn1cc(-n2cnc3c(NCc4nc5cc(Cl)c(Cl)cc5[nH]4)nc(N4CCOCC4)nc32)cn1` here?
**A.** The % of inhibition was -96.6%.

**Q.** For `Cc1cc([C@@H](C)Nc2ccccc2C(=O)O)c2nc(N3CCOCC3)cc(=O)n2c1` [AZD-6482], which % of control [2] is on record?
**A.** Its % of control is 66%.

**Q.** With `COc1cc(Nc2nc(C)cc(-c3cnn4nc(OC)ccc34)n2)cc(C(F)(F)F)c1` as the molecule, how does the % of control [3] read?
**A.** The % of control was 100%.

**Q.** And the % of control [4]?
**A.** Its % of control is 100%.

**Q.** For `Cc1ccc(-c2ccc3c(ccc4sc5c(c43)NC[C@@H](C)NC5=O)n2)cn1`, which % of inhibition [5] is on record?
**A.** Its % of inhibition is 35%.

**Q.** How did the % of control [6] turn out when `CNC(=O)Nc1ccc(-c2nc(N3CC4CCC(C3)O4)c3cnn(C4CCC5(CC4)OCCO5)c3n2)cc1` was run?
**A.** The % of control was 100%.

**Q.** What about the % of control [7] of the same molecule?
**A.** Its % of control is 100%.

**Q.** How did the dTM [8] turn out when `CC(C)(O)[C@H](F)CN1Cc2cc(NC(=O)c3cnn4cccnc34)c(N3CCOCC3)cc2C1=O` was run?
**A.** Its dTM is -0.1 K.

**Q.** `CC[C@@H]1[C@H](F)C(=O)N[C@@H]1COc1nccc2cc(C(N)=O)c(OC)cc12` [ZIMLOVISERTIB] was tested. Which % of inhibition [9] did it give?
**A.** Its % of inhibition is -0.9%.

**Q.** What about the % of inhibition [10] of the same molecule?
**A.** Its % of inhibition is 41.7%.

**Q.** What about the % of inhibition ([11]; at 0.01 µM) of the same molecule?
**A.** Its % of inhibition is -4.6%.

**Q.** And the % of inhibition ([11]; at 0.04 µM)?
**A.** The % of inhibition was -11.3%.

**Q.** What about the % of inhibition ([11]; at 0.2 µM) of the same molecule?
**A.** The % of inhibition was -14.4%.

**Q.** What about the % of inhibition ([11]; at 1 µM) of the same molecule?
**A.** Its % of inhibition is 13.9%.

**Q.** What about the % of inhibition ([11]; at 5 µM) of the same molecule?
**A.** The % of inhibition was 12.4%.

**Q.** With `CN(C)CCOc1ccc(-c2nc(-c3ccncc3)c(-c3ccc4c(c3)CC/C4=N\O)[nH]2)cc1` as the molecule, how does the % of control [12] read?
**A.** Its % of control is 35%.

**Q.** Which % of control [13] does the source give for `CCN(CC)CCCCNc1ncc2cc(-c3cc(OC)cc(OC)c3)c(NC(=O)NC(C)(C)C)nc2n1` here?
**A.** The % of control was 100%.

**Q.** Which % of control [14] does the source give for `CCC(=O)N1CCN(c2ccc(-n3c(=O)ccc4cnc5ccc(-c6cnc7ccccc7c6)cc5c43)cc2C(F)(F)F)CC1` here?
**A.** Its % of control is 79%.

**Q.** What about the % of control [15] of the same molecule?
**A.** The % of control was 84%.

**Q.** What about the % of control [16] of the same molecule?
**A.** The % of control was 100%.

**Q.** `CN(C)C/C=C/C(=O)Nc1ccc(C(=O)N2CCCC(Nc3ncc(Cl)c(-c4c[nH]c5ccccc45)n3)C2)cc1` (stereo not drawn) was tested. Which % of control [17] did it give?
**A.** Its % of control is 85%.
